Reference: PMC10780244, “Antileishmanial Effect of 1,5- and 1,8-Substituted Fused Naphthyridines” (Molecules, 2023)

Key:
[1] = Cytotoxicity in uninfected murine splenic cells (alamarBlue); format: cell-based, mouse; details: mouse; uninfected splenic cells, 72 h, alamarBlue; read-out: Mouse Splenic Macrophages CC50
Description: Amastigotes obtained from mouse bone marrow cells were used to perform a first screening with the complete series of fused 1,5- and 1,8-naphthyridines. […] The toxicity of these selected compounds was assessed in non-infected splenic cells and the cytotoxic concentration (CC50) value obtained was used to calculate the selective index (SI). The oral tolerability of these same compounds was tested by calculating the viability of murine intestinal organoids exposed to two concentrations (50 and 25 µM). In order to assess the in vitro safety of the naphthyridines, cytotoxicity assays were carried out in ex vivo splenic explants from uninfected mice, which were prepared as previously described to obtain intramacrophagic amastigotes. Cells were seeded at a density of 1 × 10^6 cells per well in 96-well plates containing the prediluted compounds and incubated at 37 °C and 5% CO2 during 72 h. AlamarBlue assay (Invitrogen, Fisher Scientific, Waltham, MA, USA) was used to estimate cell viability following manufacturer’s recommendations. The assays were performed by triplicate. Absorbance of viable cells vs. compound concentrations were fitted by nonlinear analysis using the Sigma Plot 10.1 statistical package to calculate the cytotoxic concentration 50 (CC50) values. Selectivity index (SI) was calculated as the ratio between CC50 and the EC50 values of intramacrophagic amastigotes.

[2] = system: axenic iRFP-L. infantum amastigotes from bone marrow cells; experiment: Axenic amastigote viability assay (iRFP fluorescence, first screening); format: cell-based; details: Leishmania infantum, Bone marrow cell, cut-off 25 µM, 72 h, read-out: Axenic Amastigotes (concentration with inhibition)
Description: The 1,5- and 1,8-fused naphthyridine derivatives were evaluated as antileishmanial agents in assays using two forms of L. infantum amastigotes: axenic amastigotes recovered from bone marrow cells of infected BALB/c mice and intramacrophagic amastigotes obtained from splenic explants of the same subjects. The L. infantum strain used is a genetically modified strain previously engineered by our group to constitutively express the infrared protein iRFP from Rhodopseudomonas palustris bacteriophytochrome (iRFP L. infantum). This strain allows monitoring the viability of both forms of the parasite by quantifying the fluorescence emitted at 700 nm by the iRFP protein produced by living amastigotes.
Amastigotes obtained from mouse bone marrow cells were used to perform a first screening with the complete series of fused 1,5- and 1,8-naphthyridines. […] The toxicity of these selected compounds was assessed in non-infected splenic cells and the cytotoxic concentration (CC50) value obtained was used to calculate the selective index (SI). The oral tolerability of these same compounds was tested by calculating the viability of murine intestinal organoids exposed to two concentrations (50 and 25 µM).
To obtain iRFP-L. infantum axenic amastigotes, femur and tibia were carefully cut at both ends, and marrow cells were removed by passing PBS through the medullary cavity with a 29G needle. The bone marrow cell suspension was filtered through a 100 µm cell strainer and centrifuged at 3500× g for 10 min at room temperature. After centrifugation, cells were resuspended in amastigote culture medium: 15 mM KCl; 136 mM KH2PO4; 10 mM K2HPO4·3H2O; 0.5 mM MgSO4. 7H2O; 24 mM NaHCO3; 22 mM glucose; 1 mM glutamine, 1xRPMI 1640 vitamin mix (Sigma-Aldrich, Merck, Darmstadt, Germany), 10 mM folic acid, 100 mM adenosine, 1xRPMI amino acid mix (Sigma-Aldrich, Merck, Darmstadt, Germany), 5 mg/mL hemin, antibiotic cocktail, 25 mM MES and 10% FBS, and incubated at 37 °C.
To test the antileishmanial effect of naphthyridines on axenic amastigotes, 40 μL of a suspension containing 3 × 10^4 iRFP-L. infantum parasites per well were incubated with another 40 μL of the drugs dilutions in amastigote culture medium with 7.5% FBS. Incubations were performed in 384-well black microtiter plates with an optical bottom at 37 °C and 5% CO2 for 72 h. Solutions of 0.1% (v/v) DMSO and 10 μM AMB were used as negative and positive controls, respectively. The assays were performed by triplicate.
The viability of axenic and intramacrophage amastigotes was calculated measuring the fluorescence emitted at 700 nm by the iRFP protein from live parasites and recorded by an Odyssey infrared imaging system (Li-Cor, NE, USA). The fluorescence emitted by the negative control wells was considered 100% viability, whereas the fluorescence emitted by the positive control wells, was adjusted to 0% viability.

| Compound | CC50 at 72 h [1] [µM] | minimal effective concentration [2] [µM] |
| --- | --- | --- |
| O=C1Oc2ccccc2C2Nc3ccc(Br)nc3[C@@H](c3ccccc3)C12 (stereo partly shown) [Compound 6b] | 55.7 ± 6.42 | < 25 |
| COc1ccc2nc3c(c(-c4ccccc4)c2n1)c(=O)oc1ccccc13 [Compound 7c] | 97.7 ± 1.77 | < 25 |
| Cc1ccc(S(=O)(=O)N2CC3C(Nc4cccnc4[C@H]3c3ccccc3)c3ccccc32)cc1 (stereo partly shown) [Compound 8a] | 45 ± 3.91 | < 25 |
| COc1ccc2c(n1)[C@@H](c1ccccc1)C1CN(S(=O)(=O)c3ccc(C)cc3)c3ccccc3C1N2 (stereo partly shown) [Compound 8c] | > 100 | < 25 |
| Cc1ccc(S(=O)(=O)N2CC3C(Nc4ccc(Br)nc4[C@H]3c3ccccc3)c3ccccc32)cc1 (stereo partly shown) [Compound 8d] | > 50 | < 25 |
| Fc1ccc2c(c1)C1Nc3ncccc3[C@@H](c3ccccc3)C1CO2 (stereo partly shown) [Compound 10b] | 50.7 ± 0.99 | < 25 |
| c1ccc(-c2c3c(nc4ncccc24)-c2ccccc2OC3)cc1 [Compound 11a] | > 100 | < 25 |
| O=c1oc2ccccc2c2nc3ncccc3c(-c3ccccc3)c12 [Compound 13a] | 34.6 ± 1.79 | < 25 |
| O=c1oc2ccccc2c2nc3ncc(Br)cc3c(-c3ccccc3)c12 [Compound 13b] | > 50 | < 25 |
| Cc1ccc(S(=O)(=O)N2CC3C(Nc4ncccc4C3c3ccccc3)c3ccccc32)cc1 (stereo not shown) [Compound 14a] | 27.2 ± 1.55 | < 25 |
| Cc1ccc(S(=O)(=O)N2Cc3c(nc4ncc(Br)cc4c3-c3ccccc3)-c3ccccc32)cc1 [Compound 15b] | 24.6 ± 3.59 | < 25 |
